Ki and IC50 data for twelve molecules are collected here from patent US6617350B2, “Inhibitors of aspartyl protease” (priority 1999, dated 2003).

Like-named read-outs stand apart in the source and are kept apart here.

The target of one test is HIV-1 protease (Human immunodeficiency virus type 1 group M subtype B, UniProt P04585). The test can be described thus: biochemical.
The next test relates to HIV-1 (strain IIIB). The test can be described thus: microbe, parasite or virus in culture. It is filed as cell-based. As to conditions: anti-viral potency in MT-4 cells, read-out: IC50.
Setting [1] is: Table 12, HIV-1 protease, read-out: Ki.
Where [2] appears, read: Human immunodeficiency virus 1, IIIB, MT4, Table 12.

A word on the Ki: it is a dissociation constant, usually derived from enzyme kinetics or from competition with a known ligand. As a reminder, the IC50 is the concentration that inhibits the measured activity by half. On to `CN(C)C(=O)NCCCC(C)(C)CN(CC(O)C(Cc1ccccc1)NC(=O)OC1COC2OCCC12)S(=O)(=O)c1ccc2c(c1)OCO2` [Compound 266, (3R,3aS,6aR)hexahydrofuro[2,3-b]furan-3-yl N-(1S,2R)-3-[(1,3-benzodioxol-5-ylsulfonyl)(5-[(dimethylamino)carbonyl]amino-2,2-dimethylpentyl)amino]-1-benzyl-2-hydroxypropylcarbamate], for which, on HIV-1 protease (setting [1]), the Ki was less than 1 nM. Further, the IC50 in the test on HIV-1 (strain IIIB) (setting [2]) is not above 100 nM.

As for `CNc1cccc(S(=O)(=O)N(C[C@@H](O)[C@H](Cc2ccccc2)NC(=O)O[C@H]2CO[C@H]3OCC[C@H]32)CC(C)(C)CCCNC(=O)N(C)C)c1` [Compound 267, (3R,3aS,6aR)hexahydrofuro[2,3-b]furan-3-yl N-[(1S,2R)-1-benzyl-3-((5-[(dimethylamino)carbonyl]amino-2,2-dimethylpentyl)[3-(methylamino)phenyl]sulfonylamino)-2-hydroxypropyl]carbamate], the inhibitory constant (Ki) on HIV-1 protease (setting [1]) was less than 1 nM. The IC50 in the test on HIV-1 (strain IIIB) (setting [2]) was not above 100 nM.

Regarding `CN(C)C(=O)NCCCC(C)(C)CN(CC(O)C(Cc1ccccc1)NC(=O)OC1COC2OCCC12)S(=O)(=O)c1ccc2c(c1)OCCO2` [Compound 268, (3R,3aS,6aR)hexahydrofuro[2,3-b]furan-3-yl N-(1S,2R)-1-benzyl-3-[(2,3-dihydro-1,4-benzodioxin-6-ylsulfonyl)(5-[(dimethylamino)carbonyl]amino-2,2-dimethylpentyl)amino]-2-hydroxypropylcarbamate], the Ki at HIV-1 protease (setting [1]) is less than 1 nM. For the same molecule, the IC50 with HIV-1 (strain IIIB) (setting [2]) is not above 100 nM.

For the molecule `CC(C)(CCCNS(C)(=O)=O)CN(C[C@@H](O)[C@H](Cc1ccccc1)NC(=O)O[C@H]1CO[C@H]2OCC[C@H]21)S(=O)(=O)c1ccc2c(c1)OCO2` [Compound 269, (3R,3aS,6aR)hexahydrofuro[2,3-b]furan-3-yl N-[(1S,2R)-3-((1,3-benzodioxol-5-ylsulfonyl)2,2-dimethyl-5-[(methylsulfonyl)amino]pentylamino)-1-benzyl-2-hydroxypropyl]carbamate], on HIV-1 protease (setting [1]), the Ki was less than 1 nM. Also, the IC50 with HIV-1 (strain IIIB) (setting [2]) was not above 100 nM.

`CNc1cccc(S(=O)(=O)N(CC(O)C(Cc2ccccc2)NC(=O)OC2COC3OCCC23)CC(C)(C)CCCNS(C)(=O)=O)c1` [Compound 270, (3R,3aS,6aR)hexahydrofuro[2,3-b]furan-3-yl N-[(1S,2R)-1-benzyl-3-((5-[(methylsulfonyl]amino-2,2-dimethylpentyl)[3-(methylamino)phenyl]sulfonylamino)-2-hydroxypropyl]carbamate]: on HIV-1 protease (setting [1]), the Ki is less than 1 nM. The IC50 in the test with HIV-1 (strain IIIB) (setting [2]) was not above 100 nM.

With `CC(C)(CCCNS(C)(=O)=O)CN(C[C@@H](O)[C@H](Cc1ccccc1)NC(=O)O[C@H]1CO[C@H]2OCC[C@H]21)S(=O)(=O)c1ccc2c(c1)OCCO2` [Compound 271, (3R,3aS,6aR)hexahydrofuro[2,3-b]furan-3-yl N-[(1S,2R)-3-((2,3-dihydro-1,4-benzodioxin-6-ylsulfonyl)2,2-dimethyl-5-[(methylsulfonyl)amino]pentylamino)-1-benzyl-2-hydroxypropyl]carbamate], on HIV-1 protease (setting [1]), the Ki was less than 1 nM. The concentration for half-maximal inhibition (IC50) in the test on HIV-1 (strain IIIB) (setting [2]) is not above 100 nM.

At HIV-1 protease, `CNC(=O)OCCCC(C)(C)CN(CC(O)[C@H](Cc1ccccc1)NC(=O)OC1COC2OCCC12)S(=O)(=O)c1ccc2c(c1)OCO2` (stereo partly drawn) [Compound 272, (3R,3aS,6aR)-Hexahydrofuro[2,3-b]furan-3-yl N-((1S,2R)-1-benzyl-3-[2,2-dimethyl-5-(N′-methylcarbamoyloxypentyl)][(3,4-methylenedioxyphenyl)sulfonyl]amino-2-hydroxypropyl)carbamate] gave a Ki of less than 1 nM. Moreover, the 50% inhibitory concentration (IC50) in the test with HIV-1 (strain IIIB) (setting [2]) is not above 100 nM.

Consider `COc1ccc(S(=O)(=O)N(C[C@@H](O)[C@H](Cc2ccccc2)NC(=O)OC2COCOC2)CC(C)(C)CCC(N)=O)cc1` [Compound 273, {(1S,2R)-1-Benzyl-3-[(4-carboxamide-2,2-dimethyl-butyl)-(4-methoxy-benzenesulfonyl)-amino]-2-hydroxy-propyl}-carbamic acid [1,3]dioxan-5-yl ester], for which the Ki on HIV-1 protease (setting [1]) is less than 1 nM. In the test on HIV-1 (strain IIIB) (setting [2]), the IC50 was 100 to 500 nM.

For the molecule `COC(=O)CCC(C)(C)CN(C[C@@H](O)[C@H](Cc1ccccc1)NC(=O)OC1COCOC1)S(=O)(=O)c1ccc(OC)cc1` [Compound 274, {(1S,2R)-1-Benzyl-3-[(4-carbomethoxy-2,2-dimethyl-butyl)-(4-methoxy-benzenesulfonyl)-amino]-2-hydroxy-propyl}-carbamic acid[1,3]dioxan-5-yl ester], the Ki at HIV-1 protease (setting [1]) is less than 1 nM. The IC50 in the test with HIV-1 (strain IIIB) (setting [2]) lay within 100 to 500 nM.

With `COc1ccc(S(=O)(=O)N(CCC(C)=O)C[C@@H](O)[C@H](Cc2ccccc2)NC(=O)O[C@H]2CO[C@H]3OCC[C@H]32)cc1` [Compound 280, {(1S,2R)-3-[(4-methoxybenzenesulfonyl)-(3-butanonyl)-amino]-1-benzyl-2-hydroxy-propyl}-carbamic acid (3R,3aS,6aR)hexahydro-furo[2,3-b]furan-3-yl ester], the Ki on HIV-1 protease (setting [1]) is less than 1 nM. Moreover, the IC50 in the test with HIV-1 (strain IIIB) (setting [2]) fell in the range of 100 to 500 nM.

Regarding `COc1ccc(S(=O)(=O)N(CCC(C)=O)C[C@@H](O)[C@H](Cc2ccccc2)NC(=O)OC2COCOC2)cc1` [Compound 281], the Ki on HIV-1 protease (setting [1]) lay within 1 to 10 nM. Also, in the test with HIV-1 (strain IIIB) (setting [2]), the IC50 is 100 to 500 nM.

For “tert-Butyl N-(1S,2R)-1-benzyl-3-(4-cyanobutyl)[(4-methoxyphenyl)sulfonyl]amino-2-hydroxypropyl)carbamate [Compound 4]”, the Ki on HIV-1 protease (setting [1]) was in the range of 1 to 10 nM. In addition, the IC50 in the test on HIV-1 (strain IIIB) (Table 12) lay within 100 to 500 nM.
